Key:
Assay type in all cases: in vivo
[1] = tested on: Kochia (Kochia scoparia); assay: Test A preemergence; details: Bassia scoparia, pre-emergence, 240 h, preemergence, read-out: Plant response rating, Kochia
How it was run: (§1)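 Seeded soil received test chemicals as a preemergence directed spray, and seedlings at one to two leaves, 2–10 cm tall, received them postemergence, in a non-phytotoxic, surfactant-containing solvent mixture. Pots were held in a greenhouse for approximately 10 d, then rated for injury from 0, no effect, to 100, complete control.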

[2] = tested on: barnyardgrass (Echinochloa crus-galli); assay: Test A preemergence; details: Echinochloa crus-galli, pre-emergence, 240 h, preemergence, read-out: Plant response rating, Barnyardgrass
How it was run: as §1

[3] = tested on: giant foxtail (Setaria faberii); assay: Test A preemergence; details: Setaria faberi, pre-emergence, 240 h, preemergence, read-out: Plant response rating, Foxtail, Giant
How it was run: as §1

[4] = tested on: pigweed (Amaranthus retroflexus); assay: Test A preemergence; details: Amaranthus retroflexus, pre-emergence, 240 h, preemergence, read-out: Plant response rating, Pigweed
[5] = tested on: ragweed (common ragweed, Ambrosia elatior); assay: Test A preemergence; details: Ambrosia artemisiifolia, pre-emergence, 240 h, preemergence, read-out: Plant response rating, Ragweed
How it was run: as §1

[6] = tested on: ryegrass, Italian (Italian ryegrass, Lolium multiflorum); assay: Test A preemergence; details: Lolium multiflorum, pre-emergence, 240 h, preemergence, read-out: Plant response rating, Ryegrass, Italian
How it was run: as §1

[7] = tested on: Galium (catchweed bedstraw, Galium aparine); assay: Test A postemergence; details: Galium, post-emergence, 240 h, 125 g ai/ha, postemergence; visual injury after approximately 10 d; 0 to 100 scale (0 no effect, 100 complete control); read-out: Plant response rating, Galium
How it was run: as §1

[8] = tested on: Kochia (Kochia scoparia); assay: Test A postemergence; details: Bassia scoparia, post-emergence, 240 h, 125 g ai/ha, postemergence; visual injury after approximately 10 d; 0 to 100 scale (0 no effect, 100 complete control); read-out: Plant response rating, Kochia
How it was run: as §1

[9] = tested on: barnyardgrass (Echinochloa crus-galli); assay: Test A postemergence; details: Echinochloa crus-galli, post-emergence, 240 h, 125 g ai/ha, postemergence; visual injury after approximately 10 d; 0 to 100 scale (0 no effect, 100 complete control); read-out: Plant response rating, Barnyardgrass
How it was run: as §1

[10] = tested on: blackgrass (Alopecurus myosuroides); assay: Test A postemergence; details: Alopecurus myosuroides, post-emergence, 240 h, 125 g ai/ha, postemergence; visual injury after approximately 10 d; 0 to 100 scale (0 no effect, 100 complete control); read-out: Plant response rating, Blackgrass
How it was run: as §1

[11] = tested on: corn (Zea mays); assay: Test A postemergence; details: Zea mays, post-emergence, 240 h, 125 g ai/ha, postemergence; visual injury after approximately 10 d; 0 to 100 scale (0 no effect, 100 complete control)
How it was run: as §1

[12] = tested on: giant foxtail (Setaria faberii); assay: Test A postemergence; details: Setaria faberi, post-emergence, 240 h, 125 g ai/ha, postemergence; visual injury after approximately 10 d; 0 to 100 scale (0 no effect, 100 complete control); read-out: Plant response rating, Foxtail, Giant
How it was run: as §1

[13] = tested on: pigweed (Amaranthus retroflexus); assay: Test A postemergence; details: Amaranthus retroflexus, post-emergence, 240 h, 125 g ai/ha, postemergence; visual injury after approximately 10 d; 0 to 100 scale (0 no effect, 100 complete control); read-out: Plant response rating, Pigweed
How it was run: as §1

[14] = tested on: ragweed (common ragweed, Ambrosia elatior); assay: Test A postemergence; details: Ambrosia artemisiifolia, post-emergence, 240 h, 125 g ai/ha, postemergence; visual injury after approximately 10 d; 0 to 100 scale (0 no effect, 100 complete control); read-out: Plant response rating, Ragweed
How it was run: as §1

[15] = tested on: ryegrass, Italian (Italian ryegrass, Lolium multiflorum); assay: Test A postemergence; details: Lolium multiflorum, post-emergence, 240 h, 125 g ai/ha, postemergence; visual injury after approximately 10 d; 0 to 100 scale (0 no effect, 100 complete control); read-out: Plant response rating, Ryegrass, Italian
How it was run: as §1

[16] = tested on: wheat (Triticum aestivum); assay: Test A postemergence; details: Triticum aestivum, post-emergence, 240 h, 125 g ai/ha, postemergence; visual injury after approximately 10 d; 0 to 100 scale (0 no effect, 100 complete control); read-out: Plant response rating, Wheat
How it was run: as §1

[17] = 125 g ai/ha, visual rating after approx. 10 d, 0 to 100 scale where 0 is no effect and 100 is complete control
[18] = 500 g ai/ha, 0 to 100 scale, 0 = no effect, 100 = complete control

Compound O=C1NC[C@H](c2ccc3c(c2)OCO3)[C@H]1C(=O)Nc1cccc(F)c1F [Compound 731] has a pest or weed control at 125 g/ha [1, 17] of 0%, a pest or weed control at 500 g/ha [1, 18] of 60% and a pest or weed control at 125 g/ha [2, 17] of 80%. For the same compound, the pest or weed control at 500 g/ha [2, 18] was 90%, the pest or weed control at 125 g/ha [3, 17] was 40% and the pest or weed control at 500 g/ha [3, 18] was 90%. It also gave a pest or weed control at 125 g/ha [4, 17] of 0%, a pest or weed control at 500 g/ha [4, 18] of 0% and a pest or weed control at 125 g/ha [5, 17] of 0%. The pest or weed control at 500 g/ha [5, 18] was 70%, the pest or weed control at 125 g/ha [6, 17] was 20% and the pest or weed control at 500 g/ha [6, 18] was 40%. It also gave a pest or weed control at 125 g/ha [7] of 20%, a pest or weed control at 125 g/ha [8] of 0% and a pest or weed control at 125 g/ha [9] of 70%. For the same compound, the pest or weed control at 125 g/ha [10] was 0%, the Corn plant response rating (crop injury, 0 = no effect, 100 = complete kill) at 125 g/ha [11] was 0% and the pest or weed control at 125 g/ha [12] was 50%. For the same compound, the pest or weed control at 125 g/ha [13] was 0%, the pest or weed control at 125 g/ha [14] was 0% and the pest or weed control at 125 g/ha [15] was 0%. The plant injury at 125 g/ha [16] was 0%.

Source: patent US12077503B2, “Substituted cyclic amides and their use as herbicides” (FMC CORPORATION, priority 2015, dated 2024)
